# Results from US12552792B2, “Solid forms of an FGFR inhibitor and processes for preparing the same” (Incyte Corporation, priority 2018, dated 2026).
# Values joined by “and” are separate entries in the source; they are usually repeats but may differ in a detail not shown here. Identical values can stand only once.
# What was measured:
# [1] = test system: patients with myeloid/lymphoid neoplasms with FGFR1 rearrangement; experiment: Phase 2 clinical study in myeloid/lymphoid neoplasms with FGFR1 rearrangement; format: in vivo, human; conditions: for evaluable patients who achieved clinical response: preliminary
# Source text: All potential subjects must have documentation of an 8p11 translocation known to activate FGFR1 through the site's own cytogenetics laboratory. Once documentation has been provided, the subject undergoes screening to meet the rest of the inclusion/exclusion criteria.
# One cycle is defined as 21 days of treatment.
# The study population is subjects with myeloid/lymphoid neoplasms with FGFR1 rearrangement. […] In addition, only subjects who are not candidates for stem cell transplantation, or have relapsed after stem cell transplantation and […] lymphocyte infusion and who have progressed and are not candidates for other disease-modifying therapies are eligible for the study.
# Additional key exclusion criteria include current evidence of clinically significant corneal disorder/keratopathy (including but not limited to bullous/band keratopathy, corneal abrasion, inflammation/ulceration, and keratoconjunctivitis, etc) or retinal disorder (including but not limited to macular/retinal degeneration, diabetic retinopathy, retinal detachment, etc) as confirmed by ophthalmologic examination.
# Study visits may include sample collection for chemistry, hematology, coagulation, lipid panel, endocrine monitoring, and urinalysis testing. […] A sample of bone marrow aspirate or peripheral blood is sent to the central laboratory for confirmation of FGFR1 rearrangement as well as a central pathology laboratory for analysis. In addition, sites provide slides and/or digitized images of bone marrow aspirate at baseline and at the time of achieving response and send them to a central pathology group for review.
# Once the subject's eligibility is confirmed through the site's laboratory, screening may begin. […] Safety follow-up is 30 days (+5 days) after the last dose of the study drug. In addition, subjects are followed for overall survival after stopping treatment with study drug. Study participation is expected to average approximately 6 months per individual subject.
# [2] = test system: patients with advanced/metastatic or surgically unresectable cholangiocarcinoma; experiment: Phase 2 clinical study in advanced/metastatic or surgically unresectable cholangiocarcinoma; conditions: for median PFS; Median time to events (95% Cl), months: Kaplan-Meier
# Source text: The study also considers exposure-response analyses for key efficacy and safety parameters.
# The study enrolls approximately 100 subjects into Cohort A (FGFR2 translocations), 20 subjects into Cohort B (other FGF/FGFR alterations), and 20 subjects into Cohort C (US only, negative for FGF/FGFR alterations). […] Treatment will start on Day 1. Subjects undergo regular safety assessments during treatment as well as regular efficacy assessments. Subjects are allowed to continue administration in 21-day cycles until documented disease progression or unacceptable toxicity is reported.
# One cycle is defined as 21 days.
# The study subjects are those with advanced/metastatic or surgically unresectable cholangiocarcinoma with FGFR2 translocations, with other FGF/FGFR alterations, or who are negative for any FGF/FGFR alterations, who failed at least 1 previous treatment.
# The key inclusion criteria include men and women, aged 18 or older. The subjects have histologically or cytologically confirmed advanced/metastatic or surgically unresectable cholangiocarcinoma. Subjects in Cohort A have FGFR2 translocations with a documented fusion partner in central laboratory report. Subjects in Cohort B have other FGF/FGFR alterations. Subjects in Cohort C (US only) are negative for FGF/FGFR alterations. Additional key inclusion criteria include radiographically measureable disease per RECIST v. 1.1; documentation of FGF/FGFR gene alteration status; documented disease progression after at least 1 line of prior systemic therapy; ECOG performance status of 0 to 2; a life expectancy greater than or equal to 12 weeks; adequate hepatic function; adequate renal function; serum phosphate≤institutional ULN; and serum calcium within institutional normal range.
# The study schedule and procedures include regularly scheduled study visits at the clinical site as part of a 21-day cycle. Study visits begin with a prescreening to obtain FGF/FGFR status if unknown (results within approximately 2 years of screening are valid). Screening takes place on day −28 through day −1. Cycle 1 occurs on days 1, 8, and 15. Cycles 2+ begin on day 1. A safety follow up occurs 30 days (+5 days) from date of last dose. Disease status follow-up occurs every 9 weeks for subjects who discontinue for reasons other than disease progression. There is a survival follow-up every 12 weeks after discontinuation. […] Study visits include sample collection for hematology, chemistry, coagulation, endocrine monitoring, lipids, and urinalysis testing. Additionally, HIV screening (required for subjects outside the US) and hepatitis screening (serology) is done at screening. Pregnancy testing is also be done at screening, Day 1 of every cycle before dose administration, and at end-of-treatment. FGF/FGFR status may be determined locally.
# Tumor tissue is evaluated through the central laboratory for confirmation of FGF/FGFR alteration status. Blood samples for population pharmacokinetic analysis and whole blood pharmacodynamics and correlative studies are collected at various time points throughout the study and analyzed at the central laboratory or designee.
# Adverse event assessments, vital signs, electrocardiograms, physical examination, ECOG performance status comprehensive eye examination, and tumor and disease response assessments are performed by the investigative site. An objective assessment of disease status is performed at screening. Subsequently, disease status including RECIST radiological response assessment is assessed every 2 cycles for the first 4 cycles and every 3 cycles thereafter. A central radiology group provides centralized reading on all assessments.
# The primary endpoint of the study is to determine the objective response rate (ORR) in subjects with FGFR2 translocations based on the central genomics laboratory results.
# [3] = Cohort A (FGFR2 translocations), preliminary
# [4] = Cohort A (n = 47), independent reviewer
# [5] = Cohort B (n = 22), independent reviewer
# [6] = Cohort C (n = 18), independent reviewer
# [7] = all patients, 13.5 mg QD 2-weeks-on/1-week-off
smiles,measurement,setting,value
"CCN1C(=O)N(c2c(F)c(OC)cc(OC)c2F)Cc2cnc3[nH]c(CN4CCOCC4)cc3c21 [Compound 1, 3-(2,6-difluoro-3,5-dimethoxyphenyl)-1-ethyl-8-(morpholin-4-ylmethyl)-1,3,4,7-tetrahydro-2H-pyrrolo[3′,2′:5,6]pyrido[4,3-d]pyrimidin-2-one]",evaluable patients who achieved clinical response,"[1]; 13 evaluable patients, 13.5 mg QD",85%
same,"Treatment discontinued, reason: Adverse Event, number of patients",[1]; 14 patients treated,2
same,"TRAE alopecia, %","[1]; 14 patients, 13.5 mg QD",29%
same,"TRAE diarrhea, %","[1]; 14 patients, 13.5 mg QD",36%
same,"TRAE dyspepsia, %","[1]; 14 patients, 13.5 mg QD",14%
same,"TRAE fatigue, %","[1]; 14 patients, 13.5 mg QD",14%
same,"TRAE hyperphosphatemia, %","[1]; 14 patients, 13.5 mg QD",64%
same,"TRAE increased blood alkaline phosphatase, %","[1]; 14 patients, 13.5 mg QD",21%
same,"TRAE stomatitis, %","[1]; 14 patients, 13.5 mg QD",14%
same,patients with grade 3 TRAEs,"[1]; 14 patients, 13.5 mg QD",Three
same,tolerability (in words),"[1]; 14 patients, 13.5 mg QD",generally well tolerated
same,patients with fatal TEAEs,"[1]; 14 patients, unrelated to treatment",Two
same,evaluable patients who achieved clinical response,"[1]; of 13 evaluable patients, 13.5 mg QD",11 patients
same,"response of single patient (PET scan, cytogenetics)","[1]; person, myeloproliferation and TLL, ZMYM2-FGFR1 fusion, 13.5 mg daily 2 weeks on, 1 week off, at 4 months (beginning of cycle 6)",complete cytogenetic remission and complete lymph node remission
same,"Alopecia, TEAEs, All Grades, % of patients",[2]; All Cohorts (N = 89),41.6%
same,"Alopecia, TEAEs, Grade 3/4, % of patients",[2]; All Cohorts (N = 89),0.0%
same,"Alopecia, TRAEs, All Grades, % of patients",[2]; All Cohorts (N = 89),37.1%
same,"Alopecia, TRAEs, Grade 3/4, % of patients",[2]; All Cohorts (N = 89),0.0%
same,"Arthralgia, TEAEs, All Grades, % of patients",[2]; All Cohorts (N = 89),23.6%
same,"Arthralgia, TEAEs, Grade 3/4, % of patients",[2]; All Cohorts (N = 89),6.7%
same,"Arthralgia, TRAEs, All Grades, % of patients",[2]; All Cohorts (N = 89),11.2%
same,"Arthralgia, TRAEs, Grade 3/4, % of patients",[2]; All Cohorts (N = 89),4.5%
same,"Constipation, TEAEs, All Grades, % of patients",[2]; All Cohorts (N = 89),30.3%
same,"Constipation, TEAEs, Grade 3/4, % of patients",[2]; All Cohorts (N = 89),0.0%
same,"Constipation, TRAEs, All Grades, % of patients",[2]; All Cohorts (N = 89),11.2%
same,"Constipation, TRAEs, Grade 3/4, % of patients",[2]; All Cohorts (N = 89),0.0%
same,"Decreased appetite, TEAEs, All Grades, % of patients",[2]; All Cohorts (N = 89),37.1%
same,"Decreased appetite, TEAEs, Grade 3/4, % of patients",[2]; All Cohorts (N = 89),2.2%
same,"Decreased appetite, TRAEs, All Grades, % of patients",[2]; All Cohorts (N = 89),24.7%
same,"Decreased appetite, TRAEs, Grade 3/4, % of patients",[2]; All Cohorts (N = 89),1.1%
same,"Diarrhea, TEAEs, All Grades, % of patients",[2]; All Cohorts (N = 89),39.3%
same,"Diarrhea, TEAEs, Grade 3/4, % of patients",[2]; All Cohorts (N = 89),2.2%
same,"Diarrhea, TRAEs, All Grades, % of patients",[2]; All Cohorts (N = 89),29.2%
same,"Diarrhea, TRAEs, Grade 3/4, % of patients",[2]; All Cohorts (N = 89),2.2%
same,"Dry eye, TEAEs, All Grades, % of patients",[2]; All Cohorts (N = 89),20.2%
same,"Dry eye, TEAEs, Grade 3/4, % of patients",[2]; All Cohorts (N = 89),1.1%
same,"Dry eye, TRAEs, All Grades, % of patients",[2]; All Cohorts (N = 89),13.5%
same,"Dry eye, TRAEs, Grade 3/4, % of patients",[2]; All Cohorts (N = 89),1.1%
same,"Dry mouth, TEAEs, All Grades, % of patients",[2]; All Cohorts (N = 89),29.2%
same,"Dry mouth, TEAEs, Grade 3/4, % of patients",[2]; All Cohorts (N = 89),0.0%
same,"Dry mouth, TRAEs, All Grades, % of patients",[2]; All Cohorts (N = 89),23.6%
same,"Dry mouth, TRAEs, Grade 3/4, % of patients",[2]; All Cohorts (N = 89),0.0%
same,"Dysgeusia, TEAEs, All Grades, % of patients",[2]; All Cohorts (N = 89),36.0%
same,"Dysgeusia, TEAEs, Grade 3/4, % of patients",[2]; All Cohorts (N = 89),0.0%
same,"Dysgeusia, TRAEs, All Grades, % of patients",[2]; All Cohorts (N = 89),34.8%
same,"Dysgeusia, TRAEs, Grade 3/4, % of patients",[2]; All Cohorts (N = 89),0.0%
same,"Edema peripheral, TEAEs, All Grades, % of patients",[2]; All Cohorts (N = 89),22.5%
same,"Edema peripheral, TEAEs, Grade 3/4, % of patients",[2]; All Cohorts (N = 89),1.1%
same,"Edema peripheral, TRAEs, All Grades, % of patients",[2]; All Cohorts (N = 89),3.4%
same,"Edema peripheral, TRAEs, Grade 3/4, % of patients",[2]; All Cohorts (N = 89),0.0%
same,"Fatigue, TEAEs, All Grades, % of patients",[2]; All Cohorts (N = 89),36.0%
same,"Fatigue, TEAEs, Grade 3/4, % of patients",[2]; All Cohorts (N = 89),4.5%
same,"Fatigue, TRAEs, All Grades, % of patients",[2]; All Cohorts (N = 89),23.6%
same,"Fatigue, TRAEs, Grade 3/4, % of patients",[2]; All Cohorts (N = 89),1.1%
same,"Hyperphosphatemia, TEAEs, All Grades, % of patients",[2]; All Cohorts (N = 89),60.7%
same,"Hyperphosphatemia, TEAEs, Grade 3/4, % of patients",[2]; All Cohorts (N = 89),0.0%
same,"Hyperphosphatemia, TRAEs, All Grades, % of patients",[2]; All Cohorts (N = 89),55.1%
same,"Hyperphosphatemia, TRAEs, Grade 3/4, % of patients",[2]; All Cohorts (N = 89),0.0%
same,"Hypophosphatemia, TEAEs, All Grades, % of patients",[2]; All Cohorts (N = 89),25.8%
same,"Hypophosphatemia, TEAEs, Grade 3/4, % of patients",[2]; All Cohorts (N = 89),13.5%
same,"Hypophosphatemia, TRAEs, All Grades, % of patients",[2]; All Cohorts (N = 89),10.1%
same,"Hypophosphatemia, TRAEs, Grade 3/4, % of patients",[2]; All Cohorts (N = 89),5.6%
same,"Nausea, TEAEs, All Grades, % of patients",[2]; All Cohorts (N = 89),29.2%
same,"Nausea, TEAEs, Grade 3/4, % of patients",[2]; All Cohorts (N = 89),0.0%
same,"Nausea, TRAEs, All Grades, % of patients",[2]; All Cohorts (N = 89),15.7%
same,"Nausea, TRAEs, Grade 3/4, % of patients",[2]; All Cohorts (N = 89),0.0%
same,"Stomatitis, TEAEs, All Grades, % of patients",[2]; All Cohorts (N = 89),30.3%
same,"Stomatitis, TEAEs, Grade 3/4, % of patients",[2]; All Cohorts (N = 89),3.4%
same,"Stomatitis, TRAEs, All Grades, % of patients",[2]; All Cohorts (N = 89),27.0%
same,"Stomatitis, TRAEs, Grade 3/4, % of patients",[2]; All Cohorts (N = 89),3.4%
same,Median OS,[2]; Cohort A (FGFR2 translocations),15.8 months
same,"median PFS; Median time to events (95% Cl), months","[2]; Cohort A (FGFR2 translocations), 47 evaluable patients, independent reviewer",9.2 months and 9.20 (6.44-NE) months
same,objective response rate (ORR),"[2]; Cohort A (FGFR2 translocations), 47 patients followed >=8 months, 13.5 mg QD 2-weeks-on/1-week-off, independent reviewer, preliminary",40.4%
same,Disease control rate (DCR),[2]; [3],85.1%
same,median duration of response (DOR),[2]; [3],has not been reached
same,probability of maintaining response for greater than or equal to six months,[2]; [3],86.2%
same,"Best OR: CR, % of patients",[2]; [4],(0.0) %
same,"Best OR: NE, % of patients",[2]; [4],(4.3) %
same,"Best OR: PD, % of patients",[2]; [4],(10.6) %
same,"Best OR: PR, % of patients",[2]; [4],(40.4) %
same,"Best OR: SD, % of patients",[2]; [4],(44.7) %
same,DCR,[2]; [4],85.1%
same,ORR,[2]; [4],40.4%
same,"PFS Events, %","[2]; Cohort A, 47 evaluable patients",46.8%
same,"Best OR: CR, % of patients",[2]; [5],(0.0) %
same,"Best OR: NE, % of patients",[2]; [5],(22.7) %
same,"Best OR: PD, % of patients",[2]; [5],(31.8) %
same,"Best OR: PR, % of patients",[2]; [5],(0.0) %
same,"Best OR: SD, % of patients",[2]; [5],(45.5) %
same,DCR,[2]; [5],45.5%
same,ORR,[2]; [5],0%
same,Median OS,[2]; Cohort B (other FGF/FGFR alterations),6.8 months
same,"median PFS; Median time to events (95% Cl), months","[2]; Cohort B (other FGF/FGFR alterations), 22 evaluable patients, independent reviewer",2.1 months and 2.10 (1.18-6.80) months
same,Disease control rate (DCR),"[2]; Cohort B (other FGF/FGFR alterations), preliminary",45.5%
same,"PFS Events, %","[2]; Cohort B, 22 evaluable patients",77.3%
same,"Best OR: CR, % of patients",[2]; [6],(0.0) %
same,"Best OR: NE, % of patients",[2]; [6],(22.2) %
same,"Best OR: PD, % of patients",[2]; [6],(55.6) %
same,"Best OR: PR, % of patients",[2]; [6],(0.0) %
same,"Best OR: SD, % of patients",[2]; [6],(22.2) %
same,DCR,[2]; [6],22.2%
same,ORR,[2]; [6],0%
same,Median OS,[2]; Cohort C (negative for FGF/FGFR alterations),4.0 months
same,"median PFS; Median time to events (95% Cl), months","[2]; Cohort C (negative for FGF/FGFR alterations), 18 evaluable patients, independent reviewer",1.7 months and 1.68 (1.38-1.84) months
same,Disease control rate (DCR),"[2]; Cohort C (negative for FGF/FGFR alterations), preliminary",22.2%
same,"PFS Events, %","[2]; Cohort C, 18 evaluable patients",88.9%
same,patients with TEAEs with a fatal outcome,"[2]; all cohorts, none related to study treatment",Five
same,Grade 3 or greater TEAE abdominal pain,[2]; [7],6.7%
same,Grade 3 or greater TEAE arthralgia,[2]; [7],6.7%
same,Grade 3 or greater TEAE hyponatremia,[2]; [7],7.9%
same,Grade 3 or greater TEAE hypophosphatemia,[2]; [7],13.5%
same,TEAE alopecia,[2]; [7],41.6%
same,TEAE decreased appetite,[2]; [7],37.1%
same,TEAE diarrhea,[2]; [7],39.3%
same,TEAE dysgeusia,[2]; [7],36.0%
same,TEAE fatigue,[2]; [7],36.0%
same,TEAE hyperphosphatemia,[2]; [7],60.7%
same,tolerability (in words),"[2]; interim analysis, patients with at least 8 months follow up",generally well tolerated
